{"source": "patent US20250250227A1", "about": "“AMINO LIPID COMPOUND, PREPARATION METHOD THEREFOR, COMPOSITION THEREOF AND USE THEREOF” (SHENZHEN SHENXIN BIOTECHNOLOGY CO., LTD., priority 2022, published 2025)", "key": {"[1]": {"system": "Female BALB/c mice", "experiment": "Performance evaluation of in vivo delivery of Fluc mRNA lipid nanoparticle (IVIS, body and organs)", "conditions": "Fluc mRNA LNP; for Liver (fluorescence expression intensity) / Spleen (fluorescence expression intensity): 75 μL IV; for Liver (fluorescence expression intensity) / Spleen (fluorescence expression intensity) / Total flux (fluorescence expression intensity) / (Spleen/Total Flux) * 100%: 6 hours after injection; for Liver (fluorescence expression intensity) / Spleen (fluorescence expression intensity) / Total flux (fluorescence expression intensity): IVIS; for Total flux (fluorescence expression intensity): 75 μL tail vein injection (IV); for (Spleen/Total Flux) * 100% / Multiple of spleen delivery/total delivery to amino lipid compound 118: IV; for Multiple of spleen delivery/total delivery to amino lipid compound 118: relative to amino lipid compound 118", "how_it_was_run": "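Female BALB/c mice, 6-8 weeks, received 75 μL Fluc mRNA-LNP by tail-vein injection, 3 mice per formulation. At 6 h, 200 μL D-luciferin was injected, mice were anesthetized with isoflurane, and IVIS bioluminescence was imaged in body and organs.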"}, "[2]": {"system": "Female BALB/c mice", "experiment": "IFN-γ Elispot cellular immunity test, spleen lymphocytes of mice immunized with IN002.5.1 mRNA LNP", "type": "in vivo", "conditions": "50 μL IM, spleen on 7th day after immunization, FIG. 2-4"}}, "data": [{"compound": "CCCCCCC(CCCCCC)OC(=O)CCCCCCCCC(CCCCCCCCC(=O)OC(CCCCCC)CCCCCC)OC(=O)N(CCCN(C)C)CC(=O)OCCCC", "note": "[Compound 270]", "values": [{"measurement": "Liver (fluorescence expression intensity)", "setting": "[1]", "value": "1.34E+08"}, {"measurement": "Spleen (fluorescence expression intensity)", "setting": "[1]", "value": "7.36E+06"}, {"measurement": "Total flux (fluorescence expression intensity)", "setting": "[1]", "value": "4.40E+08"}, {"measurement": "(Spleen/Total Flux) * 100%", "setting": "[1]", "value": 1.67, "unit": "%"}, {"measurement": "Multiple of spleen delivery/total delivery to amino lipid compound 118", "setting": "[1]", "value": 4.92}, {"measurement": "Cellular immunity effect (IFN-γ Elispot) compared to ALC0315", "setting": "[2]", "value": "better cellular immunity effect"}]}, {"compound": "CCCCCCCOC(=O)CN(CCCN(C)C)C(=O)OC(CCCCCCCCC(=O)OC(CCCCCC)CCCCCC)CCCCCCCCC(=O)OC(CCCCCC)CCCCCC", "note": "[Compound 273]", "values": [{"measurement": "Liver (fluorescence expression intensity)", "setting": "[1]", "value": "4.33E+07"}, {"measurement": "Spleen (fluorescence expression intensity)", "setting": "[1]", "value": "2.37E+06"}, {"measurement": "Total flux (fluorescence expression intensity)", "setting": "[1]", "value": "1.78E+08"}, {"measurement": "(Spleen/Total Flux) * 100%", "setting": "[1]", "value": 1.33, "unit": "%"}, {"measurement": "Multiple of spleen delivery/total delivery to amino lipid compound 118", "setting": "[1]", "value": 3.92}, {"measurement": "Cellular immunity effect (IFN-γ Elispot) compared to ALC0315", "setting": "[2]", "value": "better cellular immunity effect"}]}, {"compound": "CCCCCCOC(=O)CN(CCCN(C)C)C(=O)OC(CCCCCCCCC(=O)OC(CCCCCC)CCCCCC)CCCCCCCCC(=O)OC(CCCCCC)CCCCCC", "note": "[Compound 272]", "values": [{"measurement": "Liver (fluorescence expression intensity)", "setting": "[1]", "value": "7.42E+07"}, {"measurement": "Spleen (fluorescence expression intensity)", "setting": "[1]", "value": "3.03E+06"}, {"measurement": "Total flux (fluorescence expression intensity)", "setting": "[1]", "value": "4.04E+08"}, {"measurement": "(Spleen/Total Flux) * 100%", "setting": "[1]", "value": 0.75, "unit": "%"}, {"measurement": "Multiple of spleen delivery/total delivery to amino lipid compound 118", "setting": "[1]", "value": 2.21}, {"measurement": "Cellular immunity effect (IFN-γ Elispot) compared to ALC0315", "setting": "[2]", "value": "better cellular immunity effect"}]}, {"compound": "CCCCCCC(CCCCCC)OC(=O)CCCCCCCCC(CCCCCCCCC(=O)OC(CCCCCC)CCCCCC)OC(=O)N(CCCN(C)C)CCC(=O)OCCCC", "note": "[Compound 264]", "values": [{"measurement": "Liver (fluorescence expression intensity)", "setting": "[1]", "value": "1.61E+08"}, {"measurement": "Spleen (fluorescence expression intensity)", "setting": "[1]", "value": "8.05E+06"}, {"measurement": "Total flux (fluorescence expression intensity)", "setting": "[1]", "value": "4.95E+08"}, {"measurement": "(Spleen/Total Flux) * 100%", "setting": "[1]", "value": 1.63, "unit": "%"}, {"measurement": "Multiple of spleen delivery/total delivery to amino lipid compound 118", "setting": "[1]", "value": 4.78}, {"measurement": "Cellular immunity effect (IFN-γ Elispot) compared to ALC0315", "setting": "[2]", "value": "better cellular immunity effect"}]}, {"compound": "CCCCCCCOC(=O)CCN(CCCN(C)C)C(=O)OC(CCCCCCCCC(=O)OC(CCCCCC)CCCCCC)CCCCCCCCC(=O)OC(CCCCCC)CCCCCC", "note": "[Compound 267]", "values": [{"measurement": "Liver (fluorescence expression intensity)", "setting": "[1]", "value": "9.91E+07"}, {"measurement": "Spleen (fluorescence expression intensity)", "setting": "[1]", "value": "1.54E+06"}, {"measurement": "Total flux (fluorescence expression intensity)", "setting": "[1]", "value": "4.01E+08"}, {"measurement": "(Spleen/Total Flux) * 100%", "setting": "[1]", "value": 0.38, "unit": "%"}, {"measurement": "Multiple of spleen delivery/total delivery to amino lipid compound 118", "setting": "[1]", "value": 1.13}, {"measurement": "Cellular immunity effect (IFN-γ Elispot) compared to ALC0315", "setting": "[2]", "value": "better cellular immunity effect"}]}]}
